ChEMBL document CHEMBL4422615, “Novel non-xanthine antagonist of the A2B adenosine receptor: From HTS hit to lead structure” (Eur J Med Chem, 2019)
Activity calls are given as the source filed them. No cut-off for these calls is given here.

Columns and labels:
Mus musculus = test: Antifibrotic activity in silica-induced C57BL/6J mouse pulmonary fibrosis model assessed as reduction in total number of cells in BALF at 100 to 500 mg/kg, bid administered via gavage treated from day 1 until day 7 after silica application; type: functional, organism-based
Adenosine receptor A3 = molecular target: T1, Adenosine receptor A3 (Homo sapiens, UniProt P0DMS8); test: Antagonist activity at recombinant human A3 adenosine receptor expressed in CHO cells after 3 to 4 hrs by luciferase reporter gene assay; type: cell-based
T1 sequence (P0DMS8 whole entry): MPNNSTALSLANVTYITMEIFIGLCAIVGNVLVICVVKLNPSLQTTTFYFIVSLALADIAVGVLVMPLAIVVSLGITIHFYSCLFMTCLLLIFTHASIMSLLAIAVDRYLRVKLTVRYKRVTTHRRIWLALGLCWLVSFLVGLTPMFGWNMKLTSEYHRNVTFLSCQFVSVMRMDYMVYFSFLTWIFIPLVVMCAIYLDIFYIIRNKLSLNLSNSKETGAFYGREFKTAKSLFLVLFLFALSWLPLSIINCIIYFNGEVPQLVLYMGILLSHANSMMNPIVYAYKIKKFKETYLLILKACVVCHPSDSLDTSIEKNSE

[1] = Blood clearance in human by measuring intrinsic clearance in human hepatocytes by MS/MS analysis; type: ADME, cell-based
[2] = MRT in dog at 0.3 mg/kg, iv administered as infusion for 15 mins by HPLC-MS/MS analysis; type: ADME, organism-based, Canis lupus familiaris; conditions: in vivo
[3] = MRT in rat at 1 mg/kg, po for 15 mins by HPLC-MS/MS analysis; type: ADME, organism-based; conditions: in vivo
[4] = Blood clearance in human by measuring intrinsic clearance in human liver microsomes by MS/MS analysis; type: ADME
Adenosine receptor A2b [5] = molecular target: T2, Adenosine receptor A2b (Homo sapiens, UniProt P29275); test: Displacement of [3H]DPCPX from human A2B adenosine receptor expressed in HEK293 cell membranes after 60 mins by radioligand displacement assay
T2 sequence (P29275 whole entry): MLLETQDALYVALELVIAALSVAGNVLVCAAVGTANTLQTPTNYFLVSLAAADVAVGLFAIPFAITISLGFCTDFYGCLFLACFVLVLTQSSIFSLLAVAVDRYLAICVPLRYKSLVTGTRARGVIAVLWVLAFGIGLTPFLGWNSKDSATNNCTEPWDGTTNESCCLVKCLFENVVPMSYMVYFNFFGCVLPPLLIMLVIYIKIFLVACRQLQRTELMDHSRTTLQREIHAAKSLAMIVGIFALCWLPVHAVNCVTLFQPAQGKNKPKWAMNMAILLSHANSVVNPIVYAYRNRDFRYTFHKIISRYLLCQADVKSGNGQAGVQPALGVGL

Adenosine receptor A2b [6] = molecular target: T3, Adenosine receptor A2b (Mus musculus, UniProt Q60614); test: Antagonist activity at recombinant mouse A2B adenosine receptor expressed in CHO cells after 3 to 4 hrs by luciferase reporter gene assay; type: cell-based
T3 sequence (Q60614 whole entry): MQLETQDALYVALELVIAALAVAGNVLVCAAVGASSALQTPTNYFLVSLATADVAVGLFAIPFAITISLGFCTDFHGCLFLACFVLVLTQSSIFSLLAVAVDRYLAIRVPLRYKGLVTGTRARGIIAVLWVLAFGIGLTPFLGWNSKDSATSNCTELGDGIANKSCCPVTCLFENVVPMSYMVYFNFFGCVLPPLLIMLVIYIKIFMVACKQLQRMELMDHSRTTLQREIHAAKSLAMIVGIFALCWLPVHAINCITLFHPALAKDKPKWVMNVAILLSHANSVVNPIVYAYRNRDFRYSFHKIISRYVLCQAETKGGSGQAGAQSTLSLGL

[7] = MRT in dog at 1 mg/kg, po for 15 mins by HPLC-MS/MS analysis; type: ADME, organism-based, Canis lupus familiaris; conditions: in vivo
Cytochrome P450 3A4 = Cytochrome P450 3A4 (Homo sapiens, UniProt P08684); test: Time dependent inhibition of human liver microsomes CYP3A4 using midazolam as substrate in presence of NADPH by LC-MS/MS analysis; type: ADME
Cytochrome P450 3A4, sequence (P08684 whole entry): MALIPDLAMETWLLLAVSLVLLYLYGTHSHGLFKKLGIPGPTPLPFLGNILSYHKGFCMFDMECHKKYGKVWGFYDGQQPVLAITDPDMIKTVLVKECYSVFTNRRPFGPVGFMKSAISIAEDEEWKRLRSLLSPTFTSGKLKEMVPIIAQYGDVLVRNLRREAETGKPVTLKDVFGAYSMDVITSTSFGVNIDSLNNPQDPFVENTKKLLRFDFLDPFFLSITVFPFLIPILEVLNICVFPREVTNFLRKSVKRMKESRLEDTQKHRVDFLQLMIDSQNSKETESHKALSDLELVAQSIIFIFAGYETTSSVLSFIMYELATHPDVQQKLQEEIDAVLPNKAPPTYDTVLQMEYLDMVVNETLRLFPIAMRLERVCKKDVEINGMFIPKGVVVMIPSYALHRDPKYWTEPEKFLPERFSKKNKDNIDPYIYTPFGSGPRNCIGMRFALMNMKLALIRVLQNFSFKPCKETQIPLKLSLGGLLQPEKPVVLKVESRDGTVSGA

IC50 (Adenosine receptor A3): > 6700 nM
CLhep predicted [1]: < 3.5 mL/min/kg
MRT [2]: 4.9 h
MRT [3]: 2 h
CLhep predicted [4]: 3.67 mL/min/kg
IC50 (Adenosine receptor A2b [5]): 59 to 66 nM
IC50 (Adenosine receptor A2b [6]): 400 nM
MRT [7]: 4.4 h
TDI (Cytochrome P450 3A4): Not Active
SMILES: CCn1c(=O)c2c(C)c(C(=O)N3CCC(O)CC3)sc2n(CCC(F)(F)F)c1=O
Activity (Mus musculus): inactive
